In patent publication US10087199B2, “Super-resolution imaging compositions and methods using same” (Yale University, priority 2014, dated 2018):

What was measured:
Type in all cases: cell-based
HeLa cells = experiment: Cell viability / cell- and photo-toxicity under prolonged imaging; conditions: 5 μM
Description: In the experiments described above, the cells were exposed to Cer-TCO/SiR-Tz for minutes, a relatively short time period. To evaluate whether this Golgi labeling strategy would result in cell- or photo-toxicity over prolonged periods (such as hours), HeLa cells were treated with varying concentrations of either Cer-TCO/SiR-Tz or BODIPY® FL C5-ceramide (BODIPY-Cer) (Marks, et al., 2008, Cell Biol. 130:819-832; Pagano, et al., 1991, J. Cell Biol. 113:1267-1279), a commercially available fluorescent dye that labels the Golgi. […]
Hela cells stably expressing GalNAcT2-GFP were cultured on 35 mm glass bottom dishes subsequently labeled with various concentrations of TCO-Cer (0, 1, 2, and 5 μM) and SiR-Tz (0, 1, and 2 μM) following the protocol described elsewhere herein. […] After equilibration for 30 min, phase contrast images were taken at an interval of 20 min and fluorescence images at an interval of 10 min over 400-750 min. […] The number of physically intact cells was counted at each time point. For each condition at least 110 cells were counted/observed in the initial images (n0 (0 μM TCO-Cer, 0 μM SiR-Tz)=123 cells, n0 (2 μM TCO-Cer, 2 μM SiR-Tz)=113 cells, n0 (1 μM TCO-Cer, 1 μM SiR-Tz)=130 cells, n0 (5 μM TCO-Cer, 1 μM SiR-Tz)=120 cells, n0 (5 μM BODIPY-Cer)=123 cells).

HeLa cells (Golgi label) = experiment: Photostability in sequential 3D spinning disk confocal imaging; conditions: live cells; spinning disk confocal
Description: The relative photostability of Cer-TCO/SiR-Tz to both BODIPY-Cer and the SiR labeled SNAP-tag Golgi protein Rab6 was compared. The latter is the product of reaction between Rab6-SNAP and a benzyl guanine derivative of SiR (SiR-BG) (Lukinavicius, et al., 2013, Nature Chem. 5:132-139) and thus contains the same near-IR dye as SiR-Tz (FIGS. 5A-5B). HeLa cells were treated with Cer-TCO/SiR-Tz or BODIPY-Cer, while Rab6-SNAP-expressing cells were treated with SiR-BG. The cells were then examined in sequential 3D images using spinning disk confocal microscopy; 3D visualization limited fluorescence fluctuations due to axial sample drift. In each case, 3D “stacks” of 22 optical sections were acquired in series up to 500 times in live or fixed cells (FIGS. 5A-5B). In live cells, even under optimal imaging conditions the BODIPY-Cer fluorescent signal decreased by 50% after fewer than 15 stacks. In striking contrast, the fluorescent signal of cells treated with 2 μM Cer-TCO followed by 2 μM SiR-Tz decreased by only 10% after more than 120 3D stacks had been acquired. Consistent with a lower density of Rab6-SNAP protein in the Golgi, the signal from Rab6-SNAP-SiR decayed at an intermediate rate, decreasing by 50% after about 50 3D stacks. […] After 500 3D stacks the fluorescent signal of Cer-SiR decreased 16% whereas that of Rab6-SNAP-SiR decreased by 84%. […]

[1] = test system: HeLa cells that stably expressed GalNAcT2-GFP; experiment: FRAP analysis of GalNAcT2-GFP mobility within the Golgi; conditions: recovery over 490 seconds, Cer-TCO alone or 5 μM Cer-TCO and 1 μM SiR-Tz, versus untreated
Description: To further test whether the combination of Cer-TCO and SiRTz affected traffic within the Golgi, HeLa cells that stably expressed the GFP-tagged transmembrane Golgi enzyme GalNAcT2 (Storrie, et al., 1998, J. Cell Biol. 143:1505-1521) were used and its intra-organelle mobility was monitored using fluorescence recovery after photobleaching (FRAP) experiments (FIG. 4A). A small rectangular area of the Golgi (about 2.2 microns wide) was photobleached at 488 nm and the fluorescence recovery was monitored over 490 seconds (FIG. 4B). Both the t1/2 of recovery and mobile fraction were unchanged when the cells were treated with Cer-TCO alone or the combination of 5 μM Cer-TCO and 1 μM SiR-Tz (FIG. 4C). Thus, treatment of cells with Cer-TCO alone or Cer-TCO and SiR-Tz led to no detectable change in the diffusion of GalNAcT2-GFP within the Golgi apparatus.
The stable cell line was cultured on a 35 mm glass bottom dish. In the negative control (no treatment), the medium was replaced by DMEM ph(−). […] The photobleaching of the FRAP experiment was performed with a fluorescence recovery after photobleaching unit of the microscope. […] Quantification was performed with ImageJ. The fluorescence intensity in the unbleached region of the cytosol was subtracted from that in the bleached region of Golgi. […]

[2] = test system: HeLa cells that stably expressed GalNAcT2-GFP (Golgi); experiment: Two-step Golgi labeling and colocalization with GalNAcT2-GFP by confocal microscopy
Description: To evaluate whether the Golgi could be selectively imaged using Cer-SiR, HeLa cells that stably expressed a protein fusion composed of GFP and N-acetyl-galactosaminyltransferase 2 (GalNAcT2), a transmembrane protein that localizes to the Golgi with high specificity (Storrie, et al., 1998, J. Cell Biol. 143:1505-1521), were used. These cells were treated with 2 μM Cer-TCO (5 min), maintained at 19.5° C. for 60 min to localize the lipid to the Golgi, treated subsequently with 2 μM SiR-Tz (30 min), and visualized using confocal microscopy (FIG. 2A).
The GalNAcT2-GFP and Cer-SiR signals colocalized with a Pearson's coefficient of 0.50±0.02; the corresponding value for the signals from GalNAcT2-GFP and SiR-Tz was 0.08±0.01 (p<0.0001) (FIG. 10), supporting that Cer-TCO effectively localized to the Golgi and reacted efficiently with SiR-Tz.
Stably or transiently transfected HeLa cells were cultured on 35 mm glass bottom dishes (Mattek). To label with Cer-TCO/SiR-Tz, the cells were incubated in PBS containing 1% casein, 0.2% Pluronic F-127 and 2 or 5 μM TCO-Cer for 5 min at 37° C. After washing three times with DMEM ph(−), the cells were incubated for 1 h at 19.5° C. in DMEM ph(−). During this incubation the dish was sealed with parafilm to protect the cells from the used water bath. Subsequently, the cells were washed three times and PBS containing 1% casein and 2 or 1 μM SiR-Tz, respectively, was added to the dish. The dish was sealed with parafilm again and incubated for 30 min at 19.5° C. After washing three times with DMEM ph(−), the cells were observed under a confocal microscope. Fixed samples were prepared similarly with an additional treatment with 4% PFA for 10 min at room temperature after first temperature block. […]
The Pearson correlation between the SiR and the GFP signal within cells was determined using the correlation measurement tool in Volocity. […] For cells stably expressing GalNAcT2-GFP and treated with SiR-Tz and Cer-TCO 13 samples (cells) were analyzed and for cells only treated with SiR-Tz 8 samples were analyzed. […]

CCCCCCCCCCCCC/C=C/[C@@H](O)[C@H](CO)NC(=O)CCCCC1=[N+]2C(=Cc3c(C)cc(C)n3[B-]2(F)F)C=C1 [BODIPY-Cer, BODIPY® FL C5-ceramide, reference compound]
Time after which cell rounding and de-attachment was induced (HeLa cells): about 6 hours | Number of 3D stacks after which fluorescent signal decreased by 50% (HeLa cells (Golgi label)): < 15 stacks

CCCCCCCCCCCCC/C=C/[C@@H](O)[C@H](CO)NC(=O)CCCCCNC(=O)OC1CC/C=C/CCC1 (stereo partly drawn) [Cer-TCO, (E)-cyclooct-4-en-1-yl (6-(((2S,3R,E)-1,3-dihydroxyoctadec-4-en-2-yl)amino)-6-oxohexyl)carbamate]
Mobile fraction (FRAP) [1]: unchanged

CN(C)c1ccc2c(c1)[Si](C)(C)C1=CC(=[N+](C)C)C=CC1=C2c1cc(C(=O)NCc2ccc(-c3nncnn3)cc2)ccc1C(=O)[O-] [SiR-Tz, 4-((4-(1,2,4,5-tetrazin-3-yl)benzyl)carbamoyl)-2-(7-(dimethylamino)-3-(dimethyliminio)-5,5-dimethyl-3,5-dihydrodibenzo[b,e]silin-10-yl)benzoate]
Pearson's coefficient of colocalization with GalNAcT2-GFP signal ([2]; 2 μM Cer-TCO then 2 μM SiR-Tz, or SiR-Tz only, Golgi area, confocal): 0.08±0.01 | Labeling of cells / Golgi region ([2]; live HeLa GalNAcT2-GFP cells, Cer-TCO followed by SiR-Tz, or SiR-Tz alone): did not label the cells
